Source: patent US8765736B2, “Benzenesulfonamide compounds and the use thereof” (Purdue Pharma L.P., priority 2007, dated 2014)

Assays:
[1] = target: T1, N-type calcium channel (NTCC) (Homo sapiens, UniProt Q00975); assay: FLIPR calcium mobilization assay for N-type calcium channel; assay type: cell-based; conditions: calcium mobilization in vitro assay; differentiated IMR32 cells, 5 μM nitrendipine, 90 mM KCl
T1 construct: endogenous in cells; host or cells: IMR32 cells (ATCC), differentiated with dibutyryl cAMP and bromodeoxyuridine
Experimental: Cell maintenance and differentiation. Unless noted otherwise, cell culture reagents were purchased from Mediatech of Herndon, Md. IMR32 cells (American Type Culture Collection, ATCC, Manassas, Va.) were routinely cultured in growth medium consisting of minimum essential medium containing 10% fetal bovine serum (FBS, Hyclone, Logan, Utah), 100 U/mL penicillin, 100 μg/mL streptomycin, 2 mM L-glutamine, 1 mM sodium pyruvate, and 1×MEM non-essential amino acids. 80-90% confluent flasks of cells were differentiated using the following differentiation medium: Growth medium plus 1 mM dibutyryl cyclic AMP (Sigma, St. Louis, Mo.), and 2.5 μM bromodeoxyuridine (Sigma). Cells were differentiated for 8 days by replacing differentiation medium every 2-3 days.
FLIPR Calcium Mobilization Assay for N-type Calcium Channel. One day prior to performing this assay, differentiated IMR32 cells were treated with 1× CellStripper, and seeded on poly-D-lysine-coated 96-well clear-bottom black plates (Becton Dickinson, Franklin Lakes, N.J.) at 200,000 cells/well. On the day of the assay, the cell plates were washed with IMR32 buffer (127 mM NaCl, 1 mM KCl, 2 mM MgCl2, 700 μM NaH2PO4, 5 mM CaCl2, 5 mM NaHCO3, 8 mM HEPES, 10 mM glucose, pH 7.4), then pre-stimulated with KCl and loaded as follows: 0.05 mL of IMR32 buffer, 0.05 mL of each compound tested diluted in IMR32 buffer containing 20 μM nitrendipine (Sigma), and 0.1 mL KCl dissolved in IMR32 buffer, plus Fluo-4 were added (3 μM final concentration, Molecular Probes, Eugene, Oreg.). Final test compound concentrations ranged from about 846 pM to about 17 μM, final nitrendipine concentration was 5 μM, and final KCl concentration was 90 mM. After 1 hour, the cells were washed twice with 0.05 mL of each compound tested in nitrendipine-containing IMR32 buffer (no KCl or Fluo-4), and then replaced with 0.1 mL of each compound tested in nitrendipine-containing IMR32 buffer. Plates were then transferred to a Fluorimetric Imaging Plate Reader (FLIPR^96, Molecular Devices, Inc., Sunnyvale, Calif.) for assay. The FLIPR measured basal Fluo-4 fluorescence for 315 seconds (i.e., 5 minutes and 15 seconds), then added 0.1 mL KCl agonist dissolved in IMR32 buffer and measured fluorescence for another 45 seconds. Final test compound concentrations on the cells after FLIPR read ranged from about 846 pM to about 17 μM, final nitrendipine concentration was 5 μM, and final KCl concentration was 90 mM. Data were collected over the entire time course and analyzed using Excel, Graph Pad Prism (version 3.02, Graph Pad, San Diego, Calif.), or an in-house non-linear regression analysis software.

[2] = target: T2, recombinant rat L-type calcium channel (LTCC) subunits (α1c, α2δ, and β1) (Rattus norvegicus, UniProt P22002); assay: FLIPR calcium mobilization assay for L-type calcium channel; assay type: cell-based; conditions: calcium mobilization in vitro assay; HEK293 cells stably expressing rat LTCC subunits, 90 mM KCl
T2 construct: expressed in transfected cells; α1c in pcDNA6.2DEST, β1 in pcDNA3.2DEST, α2δ in pcDNA3.1-Zeo
T2 sequence (P22002 whole entry): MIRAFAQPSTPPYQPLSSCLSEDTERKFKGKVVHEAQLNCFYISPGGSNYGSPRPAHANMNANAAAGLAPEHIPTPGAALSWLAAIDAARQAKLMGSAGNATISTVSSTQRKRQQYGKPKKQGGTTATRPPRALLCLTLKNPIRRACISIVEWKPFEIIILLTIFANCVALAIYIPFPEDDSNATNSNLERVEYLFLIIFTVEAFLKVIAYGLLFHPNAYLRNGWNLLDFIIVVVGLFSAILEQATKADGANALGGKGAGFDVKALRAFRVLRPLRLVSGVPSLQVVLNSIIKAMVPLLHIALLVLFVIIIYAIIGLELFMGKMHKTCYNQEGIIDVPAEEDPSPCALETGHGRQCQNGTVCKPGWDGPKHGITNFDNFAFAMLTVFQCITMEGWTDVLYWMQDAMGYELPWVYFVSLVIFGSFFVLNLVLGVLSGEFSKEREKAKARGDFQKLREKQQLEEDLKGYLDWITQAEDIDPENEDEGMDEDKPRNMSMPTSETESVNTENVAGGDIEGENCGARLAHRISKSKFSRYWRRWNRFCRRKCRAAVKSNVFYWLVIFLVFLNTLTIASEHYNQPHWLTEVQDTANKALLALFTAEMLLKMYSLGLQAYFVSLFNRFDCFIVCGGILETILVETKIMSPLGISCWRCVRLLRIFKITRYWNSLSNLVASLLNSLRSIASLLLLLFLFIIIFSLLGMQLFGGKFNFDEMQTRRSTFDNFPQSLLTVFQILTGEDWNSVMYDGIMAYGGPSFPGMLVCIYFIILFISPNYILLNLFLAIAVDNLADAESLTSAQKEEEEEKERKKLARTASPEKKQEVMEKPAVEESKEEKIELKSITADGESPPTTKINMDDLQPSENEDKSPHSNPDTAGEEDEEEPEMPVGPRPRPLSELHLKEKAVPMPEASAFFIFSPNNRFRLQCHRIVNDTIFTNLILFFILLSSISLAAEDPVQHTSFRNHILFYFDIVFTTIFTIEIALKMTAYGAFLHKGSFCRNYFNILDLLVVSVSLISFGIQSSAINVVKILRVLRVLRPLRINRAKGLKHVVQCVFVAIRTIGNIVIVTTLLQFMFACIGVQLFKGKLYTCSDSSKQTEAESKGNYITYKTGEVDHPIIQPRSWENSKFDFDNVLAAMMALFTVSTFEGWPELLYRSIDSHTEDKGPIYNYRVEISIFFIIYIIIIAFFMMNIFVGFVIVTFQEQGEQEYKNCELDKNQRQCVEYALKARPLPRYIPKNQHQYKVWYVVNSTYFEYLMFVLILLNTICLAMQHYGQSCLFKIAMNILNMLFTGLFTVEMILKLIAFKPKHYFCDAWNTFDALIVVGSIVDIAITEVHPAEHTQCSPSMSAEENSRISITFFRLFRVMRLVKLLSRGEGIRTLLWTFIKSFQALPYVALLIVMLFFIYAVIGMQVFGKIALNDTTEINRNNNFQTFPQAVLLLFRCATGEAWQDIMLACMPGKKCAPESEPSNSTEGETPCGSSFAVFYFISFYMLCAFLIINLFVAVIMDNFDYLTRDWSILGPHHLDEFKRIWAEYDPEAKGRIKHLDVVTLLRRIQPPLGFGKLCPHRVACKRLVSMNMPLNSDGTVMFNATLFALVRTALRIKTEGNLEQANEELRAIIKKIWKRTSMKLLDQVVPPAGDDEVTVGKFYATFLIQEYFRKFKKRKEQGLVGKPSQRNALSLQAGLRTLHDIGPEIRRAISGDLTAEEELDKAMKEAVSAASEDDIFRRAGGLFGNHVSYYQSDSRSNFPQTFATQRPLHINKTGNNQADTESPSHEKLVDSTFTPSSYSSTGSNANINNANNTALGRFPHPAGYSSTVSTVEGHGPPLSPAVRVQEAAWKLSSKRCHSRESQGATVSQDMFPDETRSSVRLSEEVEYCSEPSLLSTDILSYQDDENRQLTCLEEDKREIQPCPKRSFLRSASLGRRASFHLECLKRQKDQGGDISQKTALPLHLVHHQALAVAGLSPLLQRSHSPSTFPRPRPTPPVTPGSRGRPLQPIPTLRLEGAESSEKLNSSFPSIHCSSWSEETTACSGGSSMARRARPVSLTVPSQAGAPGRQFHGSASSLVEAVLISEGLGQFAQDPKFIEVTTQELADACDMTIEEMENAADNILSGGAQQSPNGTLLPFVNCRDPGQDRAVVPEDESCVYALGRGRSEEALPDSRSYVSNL
T2 sequence (P54290 25-944 partner): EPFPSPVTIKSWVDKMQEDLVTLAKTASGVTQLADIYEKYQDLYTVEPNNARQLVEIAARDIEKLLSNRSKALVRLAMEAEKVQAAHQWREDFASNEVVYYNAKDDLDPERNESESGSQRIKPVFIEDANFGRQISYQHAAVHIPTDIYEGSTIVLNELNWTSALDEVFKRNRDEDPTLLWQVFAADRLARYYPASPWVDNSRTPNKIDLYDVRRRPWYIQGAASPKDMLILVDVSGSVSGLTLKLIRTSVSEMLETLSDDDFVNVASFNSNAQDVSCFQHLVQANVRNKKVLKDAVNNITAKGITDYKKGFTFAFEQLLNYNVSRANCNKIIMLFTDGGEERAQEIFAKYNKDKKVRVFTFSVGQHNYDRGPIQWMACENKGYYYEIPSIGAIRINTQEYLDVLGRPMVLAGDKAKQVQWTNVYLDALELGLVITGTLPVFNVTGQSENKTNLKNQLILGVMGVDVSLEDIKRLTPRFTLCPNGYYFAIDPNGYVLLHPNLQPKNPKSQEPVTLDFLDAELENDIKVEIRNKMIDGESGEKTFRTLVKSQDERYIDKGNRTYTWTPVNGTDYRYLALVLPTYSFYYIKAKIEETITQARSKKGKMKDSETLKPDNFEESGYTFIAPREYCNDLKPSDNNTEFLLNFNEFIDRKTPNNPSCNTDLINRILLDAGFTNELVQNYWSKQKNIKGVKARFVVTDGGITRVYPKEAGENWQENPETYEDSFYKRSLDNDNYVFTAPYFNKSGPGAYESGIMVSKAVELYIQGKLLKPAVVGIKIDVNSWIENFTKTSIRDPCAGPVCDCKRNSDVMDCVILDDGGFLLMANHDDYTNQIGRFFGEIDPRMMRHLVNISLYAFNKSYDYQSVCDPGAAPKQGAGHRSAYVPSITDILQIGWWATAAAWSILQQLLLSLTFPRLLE
T2 sequence (P54290 945-1091 partner): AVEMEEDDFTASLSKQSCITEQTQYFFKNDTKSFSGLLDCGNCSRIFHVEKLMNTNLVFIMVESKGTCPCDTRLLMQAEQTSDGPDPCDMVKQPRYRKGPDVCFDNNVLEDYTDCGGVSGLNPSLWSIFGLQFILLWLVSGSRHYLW
T2 sequence (P54283 whole entry partner): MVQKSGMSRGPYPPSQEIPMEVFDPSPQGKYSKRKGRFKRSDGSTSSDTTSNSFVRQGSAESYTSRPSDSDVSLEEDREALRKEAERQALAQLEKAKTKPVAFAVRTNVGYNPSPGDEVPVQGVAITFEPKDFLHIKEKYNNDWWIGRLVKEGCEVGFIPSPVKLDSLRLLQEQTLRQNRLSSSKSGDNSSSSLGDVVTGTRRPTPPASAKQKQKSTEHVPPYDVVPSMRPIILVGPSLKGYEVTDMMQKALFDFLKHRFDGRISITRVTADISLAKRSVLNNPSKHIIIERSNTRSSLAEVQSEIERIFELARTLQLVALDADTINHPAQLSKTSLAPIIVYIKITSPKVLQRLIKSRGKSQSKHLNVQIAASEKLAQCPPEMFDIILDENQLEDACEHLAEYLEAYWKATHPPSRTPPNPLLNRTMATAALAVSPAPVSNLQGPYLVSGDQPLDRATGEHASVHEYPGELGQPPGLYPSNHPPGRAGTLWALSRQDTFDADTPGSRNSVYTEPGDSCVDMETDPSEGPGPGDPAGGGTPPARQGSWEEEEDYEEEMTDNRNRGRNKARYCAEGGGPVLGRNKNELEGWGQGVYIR
Experimental: Recombinant human embryonal kidney cells (HEK293, ATCC) stably transfected with either N-type calcium channel (NTCC) subunits (α1b (SEQ ID NOs: 13 to 15), α2δ (SEQ ID Nos: 16, 17), and β3 (SEQ ID NOs:18 to 20)) or L-type calcium channel (LTCC) subunits (α1c (SEQ ID NOs:21, 22), α2δ, and β1 (SEQ ID NOs:23 to 25)) were routinely cultured in growth medium consisting of Dulbecco's Modified Eagles Medium containing 10% FBS, 100 U/mL penicillin, 100 μg/mL streptomycin, 4 mM L-glutamine, 500 μg/mL geneticin (G418), 20 μg/mL Blasticidin S (InVivogen, San Diego, Calif.) and 500 μg/mL zeocin (InVivogen).
FLIPR Calcium Mobilization Assay for L-type Calcium Channel. One day prior to performing this assay, HEK293 cells stably expressing recombinant rat L-type calcium channel (LTCC) subunits (α1c, α2δ, and β1) were trypsinized, then seeded on poly-D-lysine-coated 96-well clear-bottom black plates (Becton Dickinson, Franklin Lakes, N.J.) at 75,000 cells/well. On the day of the assay, the plates were washed with LTCC wash buffer (127 mM NaCl, 2 mM MgCl2, 700 μM NaH2PO4, 5 mM CaCl2, 5 mM NaHCO3, 8 mM HEPES, 10 mM glucose, pH 7.4), then loaded with 0.1 mL of LTCC wash buffer containing Fluo-4 (3 μM final concentration, Molecular Probes, Eugene, Oreg.). After 1 hour, the cells were washed with 0.1 mL LTCC wash buffer and resuspended in 0.05 mL LTCC assay buffer (same composition as LTCC wash buffer). Plates were then transferred to a FLIPR^96 for assay. The FLIPR measured basal Fluo-4 fluorescence for 15 seconds, then added 0.05 mL of each compound tested diluted in LTCC assay buffer at final concentrations ranging from about 846 pM to about […]. Fluo-4 fluorescence was then measured for 5 minutes. 0.1 mL KCl agonist dissolved in LTCC assay buffer was then added to the cells to produce a final concentration of 90 mM KCl, and fluorescence was measured for another 45 seconds. Data were collected over the entire time course and analyzed using Excel, Graph Pad Prism, or an in-house regression analysis software.
L-type Recombinant Cell Line Development. L-type calcium channel expressing HEK-293 cells were created in two stages. Stage 1 was created as follows. The rat α1c, and β1 cDNA expression constructs (2.5 μg each) were co-transfected into human embryonic kidney (HEK-293) cells by Lipofectamine Plus reagent (Invitrogen), as per manufacturer's instructions. 24 hours later, cells were split in limiting dilution into multiple 96-well plates in selection media containing 20 μg/mL blasticidin and 500 μg/mL geneticin, and incubated for 3 weeks at 37° C., 5% CO2, 95% humidity. Plates containing ≦1 clone per well were cultured until wells positive for single clones were confluent. Individual clones were then arrayed into columns of a destination 96-well plate, and partly split into 6-well plates for culture maintenance. Array plates were washed once with LTCC wash (or assay) buffer and cells loaded for 1 hour with 0.1 mL of LTCC buffer containing Fluo-4 (3 μM final concentration, Molecular Probes). Then they were washed twice with 0.1 mL of LTCC buffer, and replaced with 0.1 mL LTCC buffer. Plates were then transferred to a FLIPR^96 for assay. The FLIPR measured basal Fluo-4 fluorescence for 315 seconds, then added 0.1 mL KCl agonist dissolved in LTCC buffer and measured fluorescence for another 45 seconds. Final KCl concentration was 90 mM. Data were collected over the entire time course and analyzed using Excel, Graph Pad Prism, or Activity Base software. The clone with the greatest signal-to-noise ratio, best stability of response with passage number, and best adhesion to PDL precoated plates (Becton Dickinson) was expanded, characterized and used for stage 2 cell line development.
Stage 2 of L-type cell line development was carried out as follows. The rat α2δ cDNA expression construct (5 μg each) was transfected into the stage 1 L-type clonal cell line by Lipofectamine Plus reagent (Invitrogen), as per manufacturer's instructions. […]

Structure (SMILES) | IC50 [1] [nM] | IC50 [2] [nM]
CC(C)N(C1CCN(C2CCN(c3ccccc3)C2=O)CC1)S(=O)(=O)c1cccc(C(F)(F)F)c1 (stereo not drawn) [Compound 27a, N-Isopropyl-N-[1-(2-oxo-1-phenyl-pyrrolidin-3-yl)-piperidin-4-yl]-3-trifluoromethyl-benzenesulfonamide] | 550 | > 20000
CC(C(=O)Nc1ccccc1)N1CCC(N(C2CC2)S(=O)(=O)c2cccc(C(F)(F)F)c2)CC1 (stereo not drawn) [Compound 27b, 2-{4-[Cyclopropyl-(3-trifluoromethyl-benzenesulfonyl)-amino]piperidin-1-yl}-N-phenyl-propionamide] | 390 | > 20000
CC(C)N(C1CCN(CC(=O)N2CCCCCC2)CC1)S(=O)(=O)c1cccc(C(F)(F)F)c1 [Compound 31a, N-[1-(2-Azepan-1-yl-2-oxo-ethyl)-piperidin-4-yl]-N-isopropyl-3-trifluoromethyl-benzenesulfonamide] | 300 | > 20000
CC(C)N(C1CCN(CC(=O)NC2CCCCCC2)CC1)S(=O)(=O)c1cccc(C(F)(F)F)c1 [Compound 31c, N-Cycloheptyl-2-{4-[isopropyl-(3-trifluoromethyl-benzenesulfonyl)-amino]-piperidin-1-yl}-acetamide] | 260 | 7850
CC(C)N(C1CCN(CC(=O)NC2CC3CCC2C3)CC1)S(=O)(=O)c1cccc(C(F)(F)F)c1 (stereo not drawn) [Compound 31d, N-Bicyclo[2.2.1]hept-2-yl-2-{4-[isopropyl-(3-trifluoromethyl-benzenesulfonyl)-amino]-piperidin-1-yl}-acetamide] | 340 | 4120
CC(C)N(C1CCN(CC(=O)Nc2ccc3c(c2)OC(F)(F)O3)CC1)S(=O)(=O)c1cccc(C(F)(F)F)c1 [Compound 31f, N-(2,2-Difluoro-benzo[1,3]dioxol-5-yl)-2-{4-[isopropyl-(3-trifluoromethyl-benzenesulfonyl)-amino]-piperidin-1-yl}-acetamide] | 580 | > 20000
